From a melting point compilation (Tetko et al.; mined from patent text by program, amines drawn as free bases though some values may be those of a salt) come the findings set out here.

The term melting point denotes the temperature of the solid-liquid transition.

The structures appear in SMILES notation.

Compound `COc1cc(-n2ccc(C)n2)ccc1C(=O)N1Cc2cccn2Cc2ccccc21` gave a melting point of 92 to 94 °C.

In turn, `CCc1cc2c(ccc(=O)n2Cc2ccc([N+](=O)[O-])cc2)c(CC)n1` displayed a melting point of 153 to 156 °C. To `N#CC1(c2ccc([N+](=O)[O-])cc2)CCCC1` belongs 76 to 77 °C; to `CCC(=O)CCC1(C(N)=O)c2ccccc2-c2ccccc21`, 133 to 135 °C; to `CN1CCC2(CC1)NC(=S)N(c1ccc(C#N)c(C(F)(F)F)c1)C2=N`, greater than 264 °C. With `CCOc1ccc([N+](=O)[O-])c(F)c1` the figure was 48 °C. With `FC(F)(F)c1ccccc1NCC1=NNCCN1` the figure was 97 to 98 °C; with `COC(=O)c1ccc(Cc2cc3cc(Cl)ccc3n2S(C)(=O)=O)cc1`, 143 °C.

`COCn1ccnc1C(O)(c1ccc(F)cc1)c1ccc(Cl)cc1Cl` (stereo not drawn) came in with a melting point of 179 °C. For the compound `Cc1cnc(C(=O)O)cc1C(c1cc(F)ccc1F)S(=O)(=O)c1ccc(Cl)cc1` (stereo not drawn), the melting point lay within 105 to 107 °C. `CCc1nc2cc(C(N)=O)c(Cl)cc2n1-c1ccc(CCNC(=O)NS(=O)(=O)c2ccc(C)cc2)cc1`: the melting point is 152 to 163 °C. With `Cc1ccccc1-n1c(-c2cc(-c3ccc(Cl)cc3)c(N3CCOCC3)s2)nc2ccccc2c1=O` the figure was 186 to 189 °C.

`CCC1c2ccc(F)n2-c2ccc(Br)cc2N1S(=O)(=O)c1ccc(O)cc1` (stereo not drawn) yielded a melting point of 160 to 162 °C. With `CC=C1CCC(C(=O)OC)C(C(=O)OC)C1` (stereo not drawn) the figure was 162 to 163 °C; with `Cc1ccc(-c2c(-c3ccc(S(C)(=O)=O)cc3)cnn(-c3ccc(F)cc3)c2=O)cc1F`, 245 to 248 °C; with `CCCC(NS(=O)(=O)c1ccc(Cl)cc1)C(=S)Nc1ccc(CC(=O)OCC)cc1` (racemic), 121 to 123 °C. With `OC(c1ccc(Cl)cc1)(c1ccc(Cl)cc1)c1ccns1` the figure was 118 to 120 °C. Compound `Cc1c(-c2ccccc2)sc2c(Cl)c(Cl)c(O)cc12` yielded a melting point of 146 to 147 °C.

Compound `COC(=O)Cc1cc(NC(=O)OC(C)(C)C)c(NC(=O)CC(=O)c2cccc(C#N)c2)cc1C#Cc1ccccc1` showed a melting point of 138 °C. To `CCOC(=O)Nc1nc(-c2ccccc2)c(-c2nc3ccccc3c(=O)n2-c2ccc(Cl)cc2)s1` belongs greater than 275 °C; to `O=C(Nc1ccc(C(=O)N2Cc3ccccc3Cc3cc(Cl)ccc32)cc1)c1ccc(Cl)cc1Cl`, 199 to 201 °C; to `O=S(=O)(Nc1c(Cl)ccc2cc(-c3ncc(CO)s3)[nH]c12)c1cccs1`, 197 to 199 °C. With `COc1ccc(C2Sc3c(ccc4ccccc34)N(CCCN(C)C)C(=O)C2O)cc1` (stereo not drawn) the figure was 123 to 124 °C; with `C=C(C)C(=O)NNc1ccnc2c(NC(=O)c3c(Cl)cccc3Cl)cccc12`, 277 to 280 °C; with `N#Cc1c(N2CCN(C(=O)c3cccs3)CC2)c2cccnc2n(Cc2cccc(F)c2)c1=O`, 231 °C. Compound `CCC1C(C)=NN=C(c2ccc(O)c(OC)c2)c2cc(OC)c(OC)cc21` (stereo not drawn) had a melting point of 130 to 132 °C.

The compound `CCCNC(=O)NCC1CCCCC1` registered a melting point of 60 to 61 °C. To `N#CCCN(C=O)CC(=O)O` belongs 112 to 114 °C; to `CCCCCCCCCCCCC(=O)Nc1ccn(C2OC(CO)C(O)C2O)c(=O)n1` (stereo not drawn), 143 to 146 °C; to `CN1CCC(c2c(O)cc(O)c3c(=O)cc(-c4ccccc4O)oc23)C1CO` (stereo not drawn), 212 to 213 °C. With `CCn1ncc2c(Cl)c3cc(SC)ccc3nc21` the figure was 120 to 121 °C; with `CCOC(=O)c1cn([C@@H]2C[C@@H]2F)c2cc(F)ccc2c1=O`, 227 to 230 °C. With `CC(C)(C)c1ccc(O[C@@H]2CCNC[C@H]2O)cc1` (relative stereo) the figure was 138 to 140 °C. The compound `COC(=O)CCCC#Cc1cc(Cl)ccc1NS(=O)(=O)c1ccc2sc(C)nc2c1` gave a melting point of 68 to 72 °C.

The compound `CCOC(=O)C(=O)CC(=O)c1cn(Cc2ccccc2)c2ccccc2c1=O` returned a melting point of 141 to 142 °C.

In turn, `CCOC(=O)c1cnc2c3ccc(OC)cc3ccn2c1=O` yielded a melting point of 212 °C. With `Cn1c(=O)c(C#N)c(N2CCN(C(=O)c3cccs3)CC2)c2cc(Cl)ccc21` the figure was 262 °C; with `O=C1COc2ccc3c(c2N1)C(=O)CC3`, 136 to 139 °C.

For `CCN(CC)C(=O)c1cc(OC)cc(Oc2cccc(C(F)(F)F)c2)n1`, the melting point lay within 78 to 89 °C.

`CN1c2ccc(C#CCO)cc2C(O)=C(C(=O)NCc2ccc(Cl)cc2)S1(=O)=O`: the melting point was 167 to 168 °C. Regarding `CN(C)C1C(O)CC2C3CCc4cc(O)ccc4C3CCC21C` (stereo not drawn), the melting point lay within 240 to 242 °C. In turn, `CCOC(=O)CCCCCCCn1cnc(-c2ccccc2)c1` returned a melting point of 56 to 57 °C.

`COC(=O)c1ccc(C(C)C(C)NCC(O)c2ccc(O)c(CO)c2)cc1` (stereo not drawn) gave a melting point of 84.5 to 87 °C.

Compound `CSC1NC(=O)N(c2ccc(Cl)c(Cl)c2)C(=O)N1N=C(C)C` (stereo not drawn) displayed a melting point of 181 to 182 °C.

On to `S=C(NC1CCCCC1)N1CCN(c2cnccn2)CC1`, for which the melting point was in the range of 176 to 178 °C. With `COc1ccccc1C(=O)c1sc(NCCc2ccc(Cl)cc2)nc1N` the figure was 150 to 151 °C; with `CCC(C)(C)c1cc(-c2cccc(CC3SC(N4CCOCC4)=NC3=O)n2)ccc1O` (stereo not drawn), 240 to 242 °C. With `O=C1NCCC[C@@H]1NS(=O)(=O)c1ccc(F)c(F)c1` the figure was 153 to 155 °C; with `O=C1N(Cc2ccc(C(F)(F)F)o2)c2ccccc2C12COc1ccc(=O)[nH]c12` (stereo not drawn), 175 to 177 °C.

As for `O=C(Nc1ccc(N2CCC(NC[C@H](O)COc3cccc4[nH]c5ccccc5c34)CC2)cc1)c1ccc2c(c1)OCO2`, the melting point is 217 to 223 °C.

`CCOP1(=O)OCc2ccccc21` (stereo not drawn) showed a melting point of 60 °C.

With `CCCCCCCCCCCCOCC(CO)(CO)COCCCCCCCCCCCC`, the melting point lay within 54 to 55 °C. In turn, `CCCCNC(=O)Oc1cccc(NC(=O)CC(C)(OCC)OCC)c1` returned a melting point of 130 °C. To `O=c1ccc(S(=O)(=O)c2cc3cccc(Cl)c3[nH]2)n[nH]1` belongs 248 to 250 °C; to `N#Cc1cc(C2=Nc3ccc(-n4cccc4)cc3NC(=O)C2)ccn1`, 243 to 244 °C; to `COC(=O)C(CCCBr)Oc1cc2c(cc1[N+](=O)[O-])CCC2` (stereo not drawn), 154 to 155 °C. `Cn1c2cc(Cl)ccc2c2c(C=O)nn(-c3ccccc3)c(=O)c21` gave a melting point of 235 to 236 °C. With `COc1ccc2c(c1)CC(C(=O)O)CC2` (stereo not drawn) the figure was 119 to 122 °C; with `Cc1c(CC(=O)O)oc2ccc(Cl)cc12`, 149 to 150 °C; with `CCSc1nc2c(cc1F)c(=O)c(C(=O)O)cn2C(C)(C)C`, 215 °C.

Take `CCCO[C@@H](C)C(=O)Oc1ccc(C(=O)O)cc1`: the melting point worked out at 84 °C. Consider `N#Cc1ncc(Br)cc1Br`, for which the melting point was in the range of 109 to 112 °C. With `CSC(=C[N+](=O)[O-])NC(C)C(C)(C)C` (stereo not drawn) the figure was 69 °C. `O=C1c2ccc(C(F)(F)F)cc2C(=O)c2cc3ccccc3cc21` showed a melting point of 253 to 254 °C. For `C=CCOc1cc(Br)ccc1C(=O)OC`, the melting point amounted to 62 °C. In turn, `O=c1c2c(N3CCNCC3)cc(Cl)cc2n(Cc2ccccc2)c(=O)n1Cc1ccccc1Br` registered a melting point of 94 to 97 °C.

Turning to `COc1ccc2c(c1)OCC(c1ccc(F)cc1)C2c1ccc(OCCN2CCCCC2)cc1` (stereo not drawn), the melting point lay within 93.5 to 94.5 °C. With `O=C(O)C(Cc1cccc(F)c1)c1ccc(F)cc1` (stereo not drawn) the figure was 92 to 94 °C; with `CCc1nc2cc(OC)c(OC)cc2c(-c2ccc(OC)c(OC)c2)c1CO`, 192 to 193 °C. With `CC(C)(C)C(=O)NNc1ccc([N+](=O)[O-])cc1Cl` the figure was 123 °C; with `c1ccc(-c2ccc(-c3cccs3)s2)cc1`, 116 to 118 °C; with `COc1ccc2cnc(N)nc2c1C(C)C`, 112 to 113 °C. With `CC(=O)N1CCc2c(N)cccc2C1` the figure was 107 to 108 °C; with `CC(C)(C)OC(=O)NC1CCC(CON2C(=O)c3ccccc3C2=O)C1` (stereo not drawn), 162 to 163 °C.

The compound `CN(C)CC1CCn2c(c(C3=C(c4csc5ccccc45)C(=O)NC3=O)c3ccccc32)C1` (stereo not drawn) came in with a melting point of 285 to 286 °C. `CCN(CC)CCSC1=C(C#N)C(c2ccccc2)(c2cccnc2)C(=O)N1` (stereo not drawn) gave a melting point of 133 °C.

In the case of `FC(F)(F)c1cnc(CNC(=S)Nc2ccccc2Cl)c(Cl)c1`, the melting point amounted to 126 °C. `COC(=O)c1ccc2cc(NC(=O)OC(C)(C)C)ccc2c1` gave a melting point of 178 to 180 °C. To `CC(=O)c1ccc2cc(O)ccc2c1O` belongs 195 to 200 °C.

For `CC(C)(C)OC(=O)N[C@@H](Cc1ccc(OCc2ccccc2)cc1)C(=O)NCCN1CCCCC1`, the melting point is 54 to 61 °C. With `COC(=O)CCc1cc2nc(C(F)(F)F)ccc2n1S(=O)(=O)c1ccccc1` the figure was 119 °C; with `Cc1cc(NC(=O)NS(=O)(=O)c2ccccc2)cc(C)c1S(=O)(=O)C[N+](=O)[O-]`, 140 to 142 °C. With `C=C(C)CO[C@H]1[C@H](C)OC(=O)[C@@H](NC(=O)c2nccc(OC)c2OCOC(C)=O)COC(=O)[C@@H]1Cc1ccccc1` the figure was 102 to 104 °C; with `CCCc1nc2c(N)nc3cc(OCc4ccccc4)ccc3c2s1`, 175 to 178 °C; with `Cc1[nH]cnc1/C=C1\CCc2c(c3ccc(F)cc3n2C)C1=O`, 290 to 295 °C. With `COc1ccc(C(=O)C(=O)c2cccc(-c3ccc(S(C)(=O)=O)cc3)c2-c2ccccc2)cc1Cl` the figure was 163 to 166 °C.

For the compound `O=C(Nc1cc(F)cc2c(Cl)ccnc12)c1c(Cl)cccc1Cl`, the melting point was in the range of 200 to 213 °C. To `COc1cc(Nc2c(C#N)cnc3cc(-c4ccc(CN5CCC(O)CC5)s4)ccc23)c(Cl)cc1Cl` belongs 120 to 123 °C.
